PubChem BioAssay AID1259246 (Broad Institute, 2017)
Where “and” joins values, the source holds several entries; their conditions need not be identical. Equal entries are not always repeated. Records with an inconclusive call do not appear. Calls of active or inactive are those of the source.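 How the source made its calls: active means valid dose-response fit whose half-maximal growth-inhibiting concentration is at or below a set limit above the top tested dose; inconclusive means flat fit with effect between 30 and 70%, or poor fit; inactive means half-maximal concentration above a set limit.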

Legend:
[1] = system: Clostridioides difficile clinical isolate growth, OD600, 24 h; test: antibacterial activity against Clostridioides difficile – 10-point retest, dose response (AID 1259246)
[2] = as above; details: Clostridioides difficile clinical isolate growth, OD600, 24 h

Row | SMILES | IC50 [1] | also measured
1 | CO[C@H]1CN(C)C(=O)c2ccc(NC(=O)Nc3cc(Cl)cc(Cl)c3)cc2OC[C@@H](C)NC[C@H]1C | 11.6 µM | activity change, negative = inhibition ([2]; at 120 µM (top of the series)): 23.1% (inactive)
2 | O=C(NCC[C@@H]1CC[C@H](NC(=O)C2CC2)[C@@H](CO)O1)Nc1ccc(C(F)(F)F)cc1 | 8.56 µM | activity change, negative = inhibition ([2]; at 120 µM (top of the series)): 2.87% (inactive)
3 | Cc1ccc(F)cc1S(=O)(=O)N[C@@H]1CCN(Cc2ccc(OC(C)C)cc2)C1 | 29.6 µM | activity change, negative = inhibition ([2]; at 120 µM (top of the series)): 21.4% (inactive)
4 | COc1cccc(C#Cc2ccc([C@H]3[C@@H](CO)N(C(=O)C4CCCCC4)[C@H]3C#N)cc2)c1 | 77.8 µM | activity change, negative = inhibition ([2]; at 75 µM (top of the series)): 12.9% (inactive)
5 | O=C(NCC[C@H]1CC[C@@H](NC(=O)C2CC2)[C@H](CO)O1)Nc1ccc(C(F)(F)F)cc1 | 13.5 µM | activity change, negative = inhibition ([2]; at 120 µM (top of the series)): -4.12% (inactive)
6 | C[C@H](CO)N1C[C@H](C)[C@@H](CN(C)Cc2ccc(-c3ccccc3)cc2)Oc2ccc(NC(=O)CCCN(C)C)cc2CC1=O | 68.7 µM | –
7 | COc1ccc(CN(C)C[C@H]2OCCCC[C@H](C)Oc3ccc(NC(=O)Nc4ccc(C(F)(F)F)cc4)cc3C(=O)N([C@@H](C)CO)C[C@@H]2C)cc1 | 67.7 µM | –
8 | O=C(NCC[C@@H]1CC[C@H](NC(=O)C2CC2)[C@H](CO)O1)Nc1ccc(C(F)(F)F)cc1 | 15 µM | activity change, negative = inhibition ([2]; at 120 µM (top of the series)): -0.062% (inactive)
9 | O=C(NCC[C@H]1CC[C@H](NC(=O)C2CC2)[C@H](CO)O1)Nc1ccc(C(F)(F)F)cc1 | 28.4 µM | activity change, negative = inhibition ([2]; at 120 µM (top of the series)): -1.84% (inactive)
10 | C[C@H]1CN([C@@H](C)CO)S(=O)(=O)c2ccc(/C=C/c3ccccc3)cc2O[C@@H]1CN(C)Cc1ccc(C(=O)O)cc1 | 62.8 µM | –
11 | C[C@@H]1CN([C@@H](C)CO)C(=O)c2cccc(NC(=O)Nc3ccc4c(c3)OCO4)c2O[C@@H]1CN(C)Cc1ccc(Oc2ccccc2)cc1 | < 0.26 µM | –
12 | CO[C@H](CN(C)C(=O)C1CCOCC1)[C@@H](C)CN(C(=O)Nc1ccc(C(F)(F)F)cc1)[C@H](C)CO | 14.5 µM | –
13 | CO[C@H]1CN(C)C(=O)c2ccc(NC(=O)Nc3cc(Cl)cc(Cl)c3)cc2OC[C@@H](C)NC[C@@H]1C | 34.1 µM | activity change, negative = inhibition ([2]; at 30 µM (top of the series)): 32.6% (inactive)
14 | CO[C@H]1CN(C)C(=O)c2cc(NC(=O)Nc3cc(Cl)cc(Cl)c3)ccc2OC[C@H](C)NC[C@H]1C | 41.2 µM and 8.16 µM | –
15 | Cc1ccc(-c2ccc3c(c2)O[C@@H](CN(C)Cc2ccc(C(=O)O)cc2)[C@H](C)CN([C@H](C)CO)S3(=O)=O)cc1 | 97 µM | –
16 | CC(C)Cc1ccc(CN2CC[C@@H](NS(=O)(=O)c3ccccc3)C2)cc1 | 56 µM | activity change, negative = inhibition ([2]; at 60 µM (top of the series)): 4.46% (inactive)
17 | CNC[C@@H]1Oc2cc(C#CCC3CCCC3)ccc2S(=O)(=O)N([C@H](C)CO)C[C@H]1C | 68.6 µM | –
18 | CO[C@H]1CN(C)C(=O)c2cc(NC(=O)Nc3ccc(Cl)c(Cl)c3)ccc2OC[C@H](C)NC[C@H]1C | 15.7 µM and 26.5 µM | –
19 | CO[C@@H]1CN(C)C(=O)c2cc(NC(=O)Nc3cc(Cl)cc(Cl)c3)ccc2OC[C@H](C)NC[C@H]1C | 15.8 µM and 36.4 µM | –
20 | CO[C@H]1CN(C)C(=O)c2ccc(NC(=O)c3nc4ccccc4s3)cc2OC[C@@H](C)N(Cc2ccncc2)C[C@@H]1C | > 240 µM (inactive) | –
21 | C[C@@H]1CN([C@@H](C)CO)C(=O)c2cccc(NC(=O)Nc3ccc(F)cc3)c2O[C@@H]1CN(C)Cc1ccc(C(F)(F)F)cc1 | 13 µM and 3.27 µM and 6.22 µM | –
22 | O=C(C[C@H]1CC[C@@H]2[C@H](COC[C@@H](O)CN2S(=O)(=O)c2ccccc2)O1)NCC1CCCCC1 | 52.4 µM | –
23 | C[C@H]1CN([C@@H](C)CO)C(=O)c2cccc(NC(=O)Nc3ccc(C(F)(F)F)cc3)c2O[C@H]1CN(C)Cc1ccc(-c2ccccc2)cc1 | 116 µM | –
24 | CO[C@@H]1CN(C)C(=O)c2cc(NC(=O)Nc3cc(Cl)cc(Cl)c3)ccc2OC[C@H](C)NC[C@@H]1C | 37.8 µM and 35.6 µM | –
25 | CO[C@@H]1CN(C)C(=O)c2cc(NC(=O)Nc3ccc(Cl)c(Cl)c3)ccc2OC[C@@H](C)NC[C@@H]1C | 13.7 µM and 26.6 µM | –
26 | CO[C@@H]1CN(C)C(=O)c2cc(NC(=O)Nc3ccc(Cl)c(Cl)c3)ccc2OC[C@H](C)NC[C@H]1C | 16 µM and 11.3 µM | –

Row | SMILES | IC50 [1] | also measured
27 | CO[C@@H](CN(C)C(=O)C1CCOCC1)[C@H](C)CN(C(=O)Nc1ccc(C(F)(F)F)cc1)[C@@H](C)CO | 23.4 µM | –
28 | C[C@@H]1CN([C@@H](C)CO)C(=O)c2cccc(NC(=O)Nc3ccc(C(F)(F)F)cc3)c2O[C@@H]1CN(C)Cc1ccc(-c2ccccc2)cc1 | 0.3 µM and 1.52 µM and 0.654 µM | –
29 | C[C@@H]1CN([C@@H](C)CO)C(=O)Cc2cc(NC(=O)CCCN(C)C)ccc2O[C@@H]1CN(C)Cc1ccc(-c2ccccc2)cc1 | 7.29 µM | activity change, negative = inhibition ([2]; at 110 µM (top of the series)): 88.3% (inactive)
30 | Cc1noc(C)c1NC(=O)Nc1cccc2c1O[C@H](CN(C)Cc1ccc(Oc3ccccc3)cc1)[C@H](C)CN([C@@H](C)CO)C2=O | 57.4 µM and 36.1 µM | –
31 | C[C@@H]1CN([C@@H](C)CO)C(=O)c2cccc(NC(=O)Nc3ccc4c(c3)OCO4)c2O[C@@H]1CN(C)Cc1ccc(-c2ccccc2)cc1 | 3.03 µM | –
32 | CO[C@@H]1CN(C)C(=O)c2ccc(NC(=O)Nc3cc(Cl)cc(Cl)c3)cc2OC[C@H](C)NC[C@H]1C | 153 µM and 36.2 µM | –
33 | CO[C@H]1CN(C)C(=O)c2cc(NC(=O)Nc3cc(Cl)cc(Cl)c3)ccc2OC[C@@H](C)NC[C@@H]1C | 33.9 µM and 6.17 µM | –
34 | O=C(NCC[C@H]1CC[C@H](NC(=O)C2CC2)[C@@H](CO)O1)Nc1ccc(C(F)(F)F)cc1 | 15.4 µM | –
35 | CO[C@H](CN(C)C(=O)C1CCOCC1)[C@@H](C)CN(C(=O)Nc1ccc(C(F)(F)F)cc1)[C@@H](C)CO | 2.03 µM | –
36 | C[C@@H]1CN([C@@H](C)CO)S(=O)(=O)c2ccc(C#CCC3CCCC3)cc2O[C@H]1CN(C)Cc1ccc(C(=O)O)cc1 | 32.4 µM | –
37 | CO[C@H](CN(C)C(=O)C1CCOCC1)[C@H](C)CN(C(=O)Nc1ccc(C(F)(F)F)cc1)[C@H](C)CO | 26.2 µM | –
38 | C[C@@H]1CN([C@@H](C)CO)C(=O)c2cccc(NC(=O)Nc3ccccc3)c2O[C@@H]1CN(C)Cc1ccc(-c2ccccc2)cc1 | 3.3 µM and 1.93 µM and 5.49 µM | –
39 | CO[C@H]1CN(C)C(=O)c2cc(NC(=O)Nc3cc(Cl)cc(Cl)c3)ccc2OC[C@H](C)NC[C@@H]1C | 34 µM and 55 µM | –
40 | O=C(NCC[C@@H]1CC[C@@H](NC(=O)C2CC2)[C@@H](CO)O1)Nc1ccc(C(F)(F)F)cc1 | 6.63 µM | activity change, negative = inhibition ([2]; at 120 µM (top of the series)): 2.33% (inactive)
41 | O=C(NCC[C@H]1CC[C@@H](NC(=O)C2CC2)[C@@H](CO)O1)Nc1ccc(C(F)(F)F)cc1 | 8.52 µM | activity change, negative = inhibition ([2]; at 120 µM (top of the series)): 4.63% (inactive)
42 | C[C@@H]1CN([C@@H](C)CO)C(=O)c2cc(NC(=O)Nc3cccc4ccccc34)ccc2O[C@@H](C)CCCCO[C@H]1CN(C)CC1CCCCC1 | 77.1 µM | –
43 | CO[C@@H]1CN(C)C(=O)c2ccc(NC(=O)Nc3cc(Cl)cc(Cl)c3)cc2OC[C@H](C)NC[C@@H]1C | 74.6 µM | activity change, negative = inhibition ([2]; at 120 µM (top of the series)): 4.74% (inactive)
44 | C[C@@H]1CN([C@@H](C)CO)C(=O)c2cccc(NC(=O)Nc3ccccc3)c2O[C@@H]1CN(C)Cc1ccc(C(F)(F)F)cc1 | 54.2 µM and 28 µM | –
45 | Cc1ccc(-c2ccc3c(c2)O[C@@H](CN(C)Cc2ccc(C(=O)O)cc2)[C@H](C)CN([C@@H](C)CO)S3(=O)=O)cc1 | 110 µM | –
46 | CNC[C@@H]1Oc2ccc(NC(=O)Nc3ccccc3)cc2CC(=O)N([C@@H](C)CO)C[C@H]1C | > 270 µM (inactive) | –
47 | C[C@H](O)C#Cc1ccc2c(c1)O[C@H](CN(C)C(=O)CN(C)C)[C@H](C)CN([C@H](C)CO)S2(=O)=O | > 240 µM (inactive) | –
48 | C[C@@H]1CN([C@@H](C)CO)C(=O)c2cccc(NC(=O)Nc3ccccc3)c2O[C@@H]1CN(C)Cc1ccc(Oc2ccccc2)cc1 | 1.2 µM and 0.402 µM and < 0.235 µM | –
49 | C[C@@H]1CN([C@H](C)CO)S(=O)(=O)c2ccc(/C=C/c3ccccc3)cc2O[C@H]1CN(C)Cc1ccc(C(=O)O)cc1 | 6.11 µM | –
50 | C[C@H](CO)N1C[C@H](C)[C@H](CN(C)C(=O)NC2CCCCC2)Oc2ncc(C#Cc3ccc(F)cc3)cc2C1=O | 37.7 µM | –
51 | C[C@@H]1CN([C@@H](C)CO)C(=O)c2cccc(NC(=O)Nc3ccc(C(F)(F)F)cc3)c2O[C@@H]1CN(C)Cc1ccc(Oc2ccccc2)cc1 | 0.443 µM and 0.73 µM | –
52 | CC(C)CC#Cc1ccc2c(c1)O[C@H](CN(C)Cc1ccc(C(=O)O)cc1)[C@@H](C)CN([C@H](C)CO)S2(=O)=O | 42.9 µM | –
